Assay results reported in patent publication US10160812B2, “Bispecific HER2 antibodies” (MedImmune, LLC, priority 2014, dated 2018).
“Also recorded” adds a separate entry of the source.

B1: 39S: lead optimized monoclonal antibody derived from the 1.39.1 antibody; VH SEQ ID NO:15, VL SEQ ID NO:16 (antibody, V domains shown)
VH: EVQLVESGGGLVKPGGSLRLSCAASGFTFSSYSMSWVRQAPGKGLEWVSSISSSSSYIYYADSVKGRFTISRDNAKNSLYLQMNSLRAEDTAVYYCARGGDAYNYYYFDYWGQGTLVTVSS
VL: DIVMTQTPLSLSVTPGQPASISCKSSQSVFFRSNNKNILAWYLQKPGQPPQLLIYWASSRESGVPDRFSGSGSGTDFTLKISRVEAEDVGVYYCQQYFGSPFTFGPGTKVDIK

Key:
[1] = tested on: T-DM1 resistant NCI-N87 tumor model; experiment: In vivo tumor model with acquired T-DM1 resistance; set-up: species or system mice; conditions: weekly intravenous dosing, 3 mg/kg (pertuzumab 10 mg/kg), total of 4 doses
Method: To establish an in vivo tumor model with acquired T-DM1 resistance, the T-DM1-resistant NCI-N87 cells were injected subcutaneously into the immune-deficient mice. The tumor-bearing mice were treated with 3 mg/kg of T-DM1. It appeared that the in vitro T-DM1 resistance was not fully translated into the in vivo resistance, reflected by considerable variations in tumor growth among animals. Thus, mice with large refractory tumors (˜1000 mm^3 in volume) were selected and the tumor tissue fragments were passaged to new mice until the tumors grew consistently in the presence of weekly treatment of 3 mg/kg T-DM1.

[2] = tested on: MDA-MB-361; experiment: In vitro cytotoxic activity (Cell Titer Glo); format: cell-based, human; conditions: MDA-MB-361, 3 to 4 days; read-out: In vitro potency (EC50 in pM)
[3] = tested on: SKOV-3; experiment: Disruption of intracellular microtubule network (immunofluorescence); format: cell-based, human; conditions: SKOV-3 (T-DM1 eligible), 5 nM ADC overnight
Method: (§1) On day 1, cells were harvested by trypsinization, resuspended in culture media, and then seeded in 8-well chamber slides at a density of 6×10^4 cells/well. Slides were incubated at 37° C./5% CO2 overnight. On day 2, media were aspirated to remove any unattached cells and then fresh media containing 5 nM ADC to be tested were added to the cells. Slides were incubated at 37° C./5% CO2 overnight. On day 3, each chamber was washed twice with 1×PBS. Cells were then fixed with 4% PFA for 20 min. At the end of fixation, the chambers were removed and slides were stained following standard immunofluorescence procedures. Briefly, cells were permeabilized using Triton X-100 and washed with 1×PBS containing Tween-20. Rabbit anti-human α-Tubulin Alexa-Fluor 488 (clone 11H10) was diluted by 1:100 in DAKO antibody diluent and added to the slides. After incubation at room temperature for 1 hour, slides were coversliped with ProLong® Gold Antifade Reagent containing DAPI. Stained cells were visualized by the Leica SP5 Confocal Microscope and the Leica Application Suite Advanced Fluorescence software suite.

[4] = tested on: RT-112; experiment: as above; format: cell-based, human; conditions: RT-112 (T-DM1 ineligible), 5 nM ADC overnight
Method: as §1

[5] = tested on: ZR-75-1; experiment: In vitro cytotoxic activity (Cell Titer Glo); format: cell-based, human; conditions: ZR-75-1, 3 to 4 days
[6] = tested on: T47D; experiment: In vitro cytotoxic activity (Cell Titer Glo); format: cell-based, human; conditions: 3 to 4 days
[7] = tested on: ST996 model; experiment: PDX tumor model (triple-negative, HER2 IHC 1+); format: in vivo, Athymic nude mice; conditions: Bs2-2T at 3 mg/kg
Method: All mouse experiments were carried out in compliance with the guidelines published by the Association for Assessment and Accreditation of Laboratory Animal Care (AAALAC) and protocols approved by the MedImmune Institutional Animal Care and Use Committee. Athymic nude mice between 4-8 weeks of age were used in the studies. In subcutaneous CBX models, animals were injected unilaterally on the right flank with tumor cells harvested from culture at a specific passage lot. In orthotopic CBX models, xenografts were established by injecting 5×10^6 cells per mouse (suspended in 50% matrigel) into the mammary fat pad on the right flank of animals. In PDX models, animals are implanted unilaterally on the flank with tumor fragments harvested from host animals each implanted from a specific passage lot. Pre-study tumor volumes were recorded for each experiment beginning approximately one week prior to its estimated start date. When tumors reach the appropriate tumor volume initiation (TVI) range (typically 150-250 mm^3), animals are randomized into treatment and control groups and dosing initiated. […] Animals were observed daily and tumor dimensions and body weights were measured and recorded twice weekly. Tumor volumes are calculated using the following formula: tumor volume=π÷6 (length×width^2). […]

[8] = tested on: NCI-N87 and MDA-MB-468 cells co-culture; experiment: Bystander effect co-culture assay (FACS); format: cell-based, human; conditions: co-culture of HER2-overexpressing NCI-N87 and HER2-null MDA-MB-468, 5 nM, 4 days
Method: NCI-N87 cells were stably transfected with green fluorescent protein (GFP) and MDA-MB-468 cells were stably transfected with red fluorescent protein (RFP). Both cell lines were harvested, washed, resuspended in culture media and then seeded in the same well of a 6-well plate as co-culture. As a control, each cell line was seeded in a different 6-well plate as single culture (FIG. 28A). To adjust to different growth kinetics, NCI-N87 cells were seeded at 5×10^5 cells/well and MDA-MB-468 cells were seeded at 2×10^5 cells/well. Cells were incubated for 2 days at 37° C./5% CO2. Media were aspirated and fresh media containing 5 nM of antibody or ADC to be tested was added to cells and the plates were incubated for 4 days at 37° C./5% CO2. At the end of treatment, cells in each well were collected, washed, resuspended in 100 μL of ice-cold FACS buffer and then fixed with 2% PFA. Cells were analyzed by a BD LSR II machine and BD FACSDiva™ software. Data were analyzed with FlowJo software.

[9] = tested on: NCI-N87; conditions: read-out: In vitro potency (EC50 in pM); NCI-N87, 3 to 4 days
Method: A panel of human cancer cell lines expressing various levels of HER2 was used to evaluate the cytotoxic activity of bispecific ADC (Table 5 in Example 1). Briefly, cells were harvested, resuspended, and plated in serum-containing culture media at a density of 5,000 to 20,000 per well (depending on the growth kinetics of each cell line) of 96-well plates in a volume of 100 μL. A 2× concentration of each dose of antibody or ADC to be tested was prepared by diluting the test articles in culture medium. One hundred microliters of each test article was added to cells in triplicate such that the final dose curve ranged from 5 nM down to 0.08 pM in a stepwise 1:4 serial dilution series. The treated cells were incubated at 37° C./5% CO2 for 3 to 4 days, depending on the growth kinetics of each particular cell line. Cell viability was determined using Cell Titer Glo according to manufacturer's instructions. Data are analyzed by the GraphPad Prism software and presented as percent growth inhibition relative to the untreated control. EC50 values were determined using Sigmoidal non-linear regression analysis with GraphPad Prism software and were summarized in Table 6.

[10] = target: HER2 (Homo sapiens, UniProt P04626); experiment: FACS-based binding competition assay with labeled 39S; set-up: endogenous in cells; host or cells: BT-474; conditions: BT-474 cells, 2 ug/mL labeled 39S
Method: BT-474 cells were harvested, resuspended in FACS buffer, and 2.5×10^5 cells/well were added to a 96-well U-bottom plate. […] After 1 hour of staining on ice, cells were washed 3 times with ice-cold FACS buffer and then fixed with 2% PFA. Cells were analyzed by a BD LSR II machine with BD FACSDiva™ software. Data were analyzed with FlowJo software and presented as mean MFI±SEM (n=3).

[11] = tested on: NCI-N87 cell; experiment: Proliferation inhibition assay in serum-containing media; format: cell-based, human
Method: (§2) Cell viability was determined using Cell Titer Glo from Promega according to manufacturer's instructions.

[12] = tested on: MCF-7 cells; experiment: Ligand-dependent proliferation inhibition assay; format: cell-based, human; conditions: in combination with trastuzumab or pertuzumab
Method: as §2

Molecule | in vivo activity (tumor growth) [1] | EC50 [2] [pM] | disruption of intracellular microtubule networks [3] | disruption of intracellular microtubule networks [4] | In vitro potency (EC50 in pM) [5] | In vitro potency (EC50 in pM) [6] | in vivo activity (tumor growth) [7] | bystander effect [8] | EC50 [9] [pM] | competition for binding / epitope [10] | inhibition of cell proliferation [11] | inhibition of cell growth in combination ([11]; combined with trastuzumab or pertuzumab) | inhibition of ligand-dependent proliferation in combination [12]
T-DM1 [reference compound] | resistant | 266 | capable of disrupting microtubule networks | inactive | Inactive | Inactive | no activity | does not have bystander effect | 275 |  |  |  | 
B1 |  |  |  |  |  |  |  |  |  | does not compete with trastuzumab or pertuzumab; also recorded: binds to the same epitope as its parental antibody AZ1.39.1 | limited activity | strong synergistic effect | additive or synergistic inhibition
